Drawing on patent publication US12565497B2 (Hoffmann-La Roche Inc., priority 2020, dated 2026), this text covers IC50 for 22 compounds.

A value given as a limit tells only on which side of the number the result lay.

A word on the IC50: it is the concentration at which inhibition is half-maximal.

Sequence of Recombinant human Mat2a (P31153 whole entry): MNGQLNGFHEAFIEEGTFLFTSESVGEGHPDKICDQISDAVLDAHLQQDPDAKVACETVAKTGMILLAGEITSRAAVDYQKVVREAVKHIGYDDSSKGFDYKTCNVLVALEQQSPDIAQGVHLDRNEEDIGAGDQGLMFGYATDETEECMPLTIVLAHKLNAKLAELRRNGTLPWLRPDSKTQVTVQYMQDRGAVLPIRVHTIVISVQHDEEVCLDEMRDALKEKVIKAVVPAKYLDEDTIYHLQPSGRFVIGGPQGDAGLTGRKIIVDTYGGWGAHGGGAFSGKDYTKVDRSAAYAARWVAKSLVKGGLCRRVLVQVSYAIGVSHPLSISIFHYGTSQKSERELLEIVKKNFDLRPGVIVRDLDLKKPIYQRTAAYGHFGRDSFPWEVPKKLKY

This test has as its target Recombinant human Mat2a (Homo sapiens (Human), UniProt P31153). The test is described as follows: Determination of Mat2A activity (384 well absorbance-based assay, Biomol Green). It counts as biochemical. The conditions noted are these: 12.5 nM Mat2A, 100 μM ATP and Methionine, 2% DMSO, 120 minutes at RT, absorbance at 635 nm; read-out: MAT2A_LEC IC50 (uM) (Num). The method, boiled down:
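Recombinant human Mat2A (12.5 nM) preincubated 15 min at RT with compound (10 μM to 508 pM) in 50 mM HEPES pH 7.5, 50 mM KCl, 50 mM MgCl2, 0.01% Tween 20, 10 mM DTT, 2% DMSO. Reaction started with ATP and methionine (100 μM each), run 120 min at RT, then stopped with Biomol Green; A635 read after 30 min.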
As for `CS(=O)(=O)c1ccc(-c2c(S(C)(=O)=O)ccc3[nH]nc(C4CC4)c23)cc1C(F)F` [Example 94, 3-cyclopropyl-4-(3-(difluoromethyl)-4-(methylsulfonyl)phenyl)-5-(methylsulfonyl)-1H-indazole], the IC50 was 0.05 µM.
With `CNC(=O)c1ncc2[nH]nc(C3CC3)c2c1-c1cc(C)c(S(=O)(=O)C2CC2)cc1F` [Example 96, 3-cyclopropyl-4-(4-cyclopropylsulfonyl-2-fluoro-5-methyl-phenyl)-N-methyl-1H-pyrazolo[3,4-c]pyridine-5-carboxamide], the IC50 is below 0.013 µM.
Turning to `CNC(=O)c1ncc2[nH]nc(C3CC3)c2c1-c1cc(C)c(S(C)(=O)=O)cc1F` [Example 97, 3-cyclopropyl-4-(2-fluoro-5-methyl-4-methylsulfonyl-phenyl)-N-methyl-1H-pyrazolo[3,4-c]pyridine-5-carboxamide], the IC50 is below 0.013 µM.
For `Cc1cc(-c2c(C(N)=O)ncc3[nH]nc(OC(F)F)c23)ccc1S(C)(=O)=O` [Example 98, 3-(difluoromethoxy)-4-(3-methyl-4-methylsulfonyl-phenyl)-1H-pyrazolo[3,4-c]pyridine-5-carboxamide] the value was below 0.013 µM; for `CC(=O)NCCOCCNc1cnc(-c2ccc(S(C)(=O)=O)c(C)c2)c2c(C3CC3)n[nH]c12` [Example 99, N-[2-[2-[[3-cyclopropyl-4-(3-methyl-4-methylsulfonyl-phenyl)-1H-pyrazolo[4,3-c]pyridin-7-yl]amino]ethoxy]ethyl]acetamide], 0.07 µM.
Consider `CC(=O)NCCCNc1cnc(-c2ccc(S(C)(=O)=O)c(C)c2)c2c(C3CC3)n[nH]c12` [Example 100, N-[3-[[3-cyclopropyl-4-(3-methyl-4-methylsulfonyl-phenyl)-1H-pyrazolo[4,3-c]pyridin-7-yl]amino]propyl]acetamide], for which the IC50 stood at 0.03 µM.
For `Cc1cc(-c2ncc(NCCOCCN)c3[nH]nc(C4CC4)c23)ccc1S(C)(=O)=O` [Example 101, N-[2-(2-aminoethoxy)ethyl]-3-cyclopropyl-4-(3-methyl-4-methylsulfonyl-phenyl)-1H-pyrazolo[4,3-c]pyridin-7-amine], the IC50 was 0.14 µM.
For `Cc1cc(-c2ncc(NCCCCN)c3[nH]nc(C4CC4)c23)ccc1S(C)(=O)=O` [Example 102, N′-[3-cyclopropyl-4-(3-methyl-4-methylsulfonyl-phenyl)-1H-pyrazolo[4,3-c]pyridin-7-yl]butane-1,4-diamine], the IC50 was determined as 0.06 µM.
On to `CC(=O)NCCCCNc1cnc(-c2ccc(S(C)(=O)=O)c(C)c2)c2c(C3CC3)n[nH]c12` [Example 103, N-[4-[[3-cyclopropyl-4-(3-methyl-4-methylsulfonyl-phenyl)-1H-pyrazolo[4,3-c]pyridin-7-yl]amino]butyl]acetamide], for which the IC50 came out at 0.04 µM.
For `Cc1cc(-c2ncc(NCCCN)c3[nH]nc(C4CC4)c23)ccc1S(C)(=O)=O` [Example 104, N′-[3-cyclopropyl-4-(3-methyl-4-methylsulfonyl-phenyl)-1H-pyrazolo[4,3-c]pyridin-7-yl]propane-1,3-diamine] the value was 0.04 µM; for `Cc1cc(-c2c(C#N)ncc3[nH]nc(OC(F)F)c23)ccc1S(=O)(=O)C(F)F` [Example 105, 3-(difluoromethoxy)-4-(4-((difluoromethyl)sulfonyl)-3-methylphenyl)-1H-pyrazolo[3,4-c]pyridine-5-carbonitrile], below 0.013 µM.
On to `Cc1cc(-c2c(C(N)=O)ncc3[nH]nc(OC(F)F)c23)ccc1S(=O)(=O)C(F)F` [Example 106, 3-(difluoromethoxy)-4-[4-(difluoromethylsulfonyl)-3-methyl-phenyl]-1H-pyrazolo[3,4-c]pyridine-5-carboxamide], for which the IC50 was below 0.013 µM.
For `Cc1cc(-c2c(C(=O)NC3COC3)ncc3[nH]nc(OC(F)F)c23)ccc1S(=O)(=O)C(F)F` [Example 107, 3-(difluoromethoxy)-4-[4-(difluoromethylsulfonyl)-3-methyl-phenyl]-N-(oxetan-3-yl)-1H-pyrazolo[3,4-c]pyridine-5-carboxamide], the IC50 came out at 0.013 µM.
For `CNC(=O)c1ncc2[nH]nc(OC(F)F)c2c1-c1ccc(S(=O)(=O)C(F)F)c(C)c1` [Example 108] the value was 0.015 µM; for `CNC(=O)c1ncc2[nH]nc(OC(F)F)c2c1-c1ccc(S(C)(=O)=O)c(C)c1` [Example 110, 3-(difluoromethoxy)-N-methyl-4-(3-methyl-4-methylsulfonyl-phenyl)-1H-pyrazolo[3,4-c]pyridine-5-carboxamide], below 0.013 µM; for `Cc1cc(-c2c(S(=O)(=O)C3COC3)ccc3[nH]nc(OC(F)F)c23)ccc1S(C)(=O)=O` [Example 111, 3-(difluoromethoxy)-4-(3-methyl-4-methylsulfonyl-phenyl)-5-(oxetan-3-ylsulfonyl)-1H-indazole], below 0.013 µM.
Consider `CN=S(C)(=O)c1ccc2[nH]nc(C3CC3)c2c1-c1ccc(S(C)(=O)=O)c(C)c1` (stereo not shown) [Example 113, [3-cyclopropyl-4-(3-methyl-4-methylsulfonyl-phenyl)-1H-indazol-5-yl]-methyl-methylimino-oxo-λ^6-sulfane], for which the IC50 stood at 0.31 µM.
For the compound `Cc1cc(-c2c(S(=O)(=O)N(C)C)ccc3[nH]nc(C4CC4)c23)ccc1S(C)(=O)=O` [Example 114, 3-cyclopropyl-N,N-dimethyl-4-(3-methyl-4-methylsulfonyl-phenyl)-1H-indazole-5-sulfonamide], the IC50 came out at 0.03 µM.
`CNS(=O)(=O)c1ccc2[nH]nc(C3CC3)c2c1-c1ccc(S(C)(=O)=O)c(C)c1` [Example 115, 3-cyclopropyl-N-methyl-4-(3-methyl-4-methylsulfonyl-phenyl)-1H-indazole-5-sulfonamide]: the IC50 was found to be 0.03 µM.
As for `Cc1cc(-c2c(C(N)=O)ncc3[nH]nc(OC(F)F)c23)ccc1S(=O)(=O)C1CC1` [Example 116, 4-(4-cyclopropylsulfonyl-3-methyl-phenyl)-3-(difluoromethoxy)-1H-pyrazolo[3,4-c]pyridine-5-carboxamide], the IC50 is below 0.013 µM.
Take `Cc1cc(-c2c(S(=O)(=O)C3CC3)ccc3[nH]nc(OC(F)F)c23)ccc1S(C)(=O)=O` [Example 118, 5-cyclopropylsulfonyl-3-(difluoromethoxy)-4-(3-methyl-4-methylsulfonyl-phenyl)-1H-indazole]: the half-maximal inhibitory concentration (IC50) was below 0.013 µM.
`Cc1cc(-c2c(S(C)(=O)=O)ccc3[nH]nc(OC(F)F)c23)c(F)cc1S(C)(=O)=O` [Example 119, 3-(difluoromethoxy)-4-(2-fluoro-5-methyl-4-methylsulfonyl-phenyl)-5-methylsulfonyl-1H-indazole]: the IC50 was determined as 0.02 µM.
